Reference: ChEMBL document CHEMBL5584257, “Semisynthetic derivatives of the fungal metabolite eupenifeldin via targeting the tropolone hydroxy groups” (Bioorg Med Chem Lett, 2024)
Converted amounts (≈) assume the structure as drawn.

Columns and labels:
[1] = Relative solubility of compound by measuring ratio of solubility of compound to solubility of Eupenifeldin; type: physicochemical
[2] = tested on: MDA-MB-435; experiment: Cytotoxicity against human MDA-MB-435 cells treated for 72 hrs; type: functional, cell-based; details: MDA-MB-435, 72 h
[3] = Lipophilicity, logD of compound at pH 7.4; type: physicochemical; details: buffer
[4] = tested on: OVCAR-3; experiment: Cytotoxicity against human OVCAR-3 cells treated for 72 hrs; type: functional, cell-based; details: OVCAR-3, 72 h
[5] = Aqueous solubility of compound; type: physicochemical; details: buffer

Ratio [1] | logD ([3]; read-out: logD) | solubility [5] [µg/mL] | logD [3] | Structure (SMILES) | IC50 [2] [nM] | IC50 [4] [nM]
4 10^-2No_unit | 5.5 |  |  | CC(=O)Oc1cc2c(ccc1=O)C[C@H]1CC(C)(C)/C=C/C[C@]3(C)Oc4cc(OC(C)=O)c(=O)cc(C)c4C[C@H]3C[C@H](OC(C)=O)[C@@]1(C)O2 | 72 | 193
0.2 | 4.6 |  |  | COCCOC(=O)Oc1cc2c(ccc1=O)C[C@H]1CC(C)(C)/C=C/C[C@]3(C)Oc4cc(OC(=O)OCCOC)c(=O)cc(C)c4C[C@H]3C[C@H](O)[C@@]1(C)O2 | 101 | > 250
0.4 | 4.3 |  |  | COCCOC(=O)Oc1cc2c(c(C)cc1=O)C[C@H]1C[C@H](O)[C@@]3(C)Oc4cc(O)c(=O)ccc4C[C@H]3CC(C)(C)/C=C/C[C@]1(C)O2 | 31 | 76
5 10^-3No_unit | 5.3 |  |  | Cc1cc(=O)c(OC(=O)C2CC2)cc2c1C[C@H]1C[C@H](O)[C@@]3(C)Oc4cc(OC(=O)C5CC5)c(=O)ccc4C[C@H]3CC(C)(C)/C=C/C[C@]1(C)O2 | 77 | > 250
2 10^-4No_unit | 7.5 |  |  | Cc1cc(=O)c(OCc2ccccc2)cc2c1C[C@H]1C[C@H](O)[C@@]3(C)Oc4cc(OCc5ccccc5)c(=O)ccc4C[C@H]3CC(C)(C)/C=C/C[C@]1(C)O2 | 97 | > 250
2 10^-2No_unit | 5.9 |  |  | CCN(CC)C(=O)Oc1cc2c(ccc1=O)C[C@H]1CC(C)(C)/C=C/C[C@]3(C)Oc4cc(OC(=O)N(CC)CC)c(=O)cc(C)c4C[C@H]3C[C@H](O)[C@@]1(C)O2 | > 250 | 189
0.1 | 4.6 |  |  | CC(=O)Oc1cc2c(ccc1=O)C[C@H]1CC(C)(C)/C=C/C[C@]3(C)Oc4cc(OC(C)=O)c(=O)cc(C)c4C[C@H]3C[C@H](O)[C@@]1(C)O2 | 53 | > 250
40 | 1 | 66.3 (≈ 104 µM) |  | Cc1cc(=O)c(O)cc2c1C[C@H]1C[C@H](OC(=O)CCC(=O)O)[C@@]3(C)Oc4cc(O)c(=O)ccc4C[C@H]3CC(C)(C)/C=C/C[C@]1(C)O2 | 441 | 157
6 10^-3No_unit | 6.9 |  |  | Cc1cc(=O)c(OC(=O)C(C)(C)C)cc2c1C[C@H]1C[C@H](O)[C@@]3(C)Oc4cc(OC(=O)C(C)(C)C)c(=O)ccc4C[C@H]3CC(C)(C)/C=C/C[C@]1(C)O2 | 80 | 141
 |  |  | 9.8 | Cc1cc(=O)c(OC(=O)N(c2ccccc2)c2ccccc2)cc2c1C[C@H]1C[C@H](O)[C@@]3(C)Oc4cc(OC(=O)N(c5ccccc5)c5ccccc5)c(=O)ccc4C[C@H]3CC(C)(C)/C=C/C[C@]1(C)O2 | > 250 | 228
 |  |  |  | CC(=O)O[C@H]1C(=O)[C@@]2(C)[C@H]([C@H](OC(=O)c3ccccc3)[C@]3(O)C[C@H](OC(=O)[C@H](O)[C@@H](NC(=O)c4ccccc4)c4ccccc4)C(C)=C1C3(C)C)[C@]1(OC(C)=O)CO[C@@H]1C[C@@H]2O [PACLITAXEL] |  | 0.1
